Earlier results as cited in PMC8513935.
Blank lines part the entries; values can stand above or below the molecule they belong to.

Tests used:
[1] = derived by the authors as gas->solvent minus gas->water (a hypothetical dry solvent; the ESI), not a two-phase measurement
[2] = experimental, compiled by the authors from the literature (the ESI cites the sources)

Compound: CCCCC
log K of transfer, water to solvent ([1]; 1,2-Dichloroethane, 25 C): 3.69 log10 K
log K of transfer, water to solvent ([1]; Acetone, 25 C): 3.68 log10 K
log K of transfer, water to solvent ([1]; Acetonitrile, 25 C): 3.23 log10 K
log K of transfer, water to solvent ([1]; Benzene, 25 C): 3.89 log10 K
log K of transfer, water to solvent ([1]; Butan-1-ol, 25 C): 3.68 log10 K
log K of transfer, water to solvent ([1]; Butan-2-ol, 25 C): 3.64 log10 K
log K of transfer, water to solvent ([1]; Butanone, 25 C): 3.77 log10 K
log K of transfer, water to solvent ([1]; Butyronitrile, 25 C): 3.62 log10 K
log K of transfer, water to solvent ([1]; CCl4, 25 C): 4.06 log10 K
log K of transfer, water to solvent ([1]; Chlorobenzene, 25 C): 4.13 log10 K
log K of transfer, water to solvent ([1]; Chloroform, 25 C): 4.06 log10 K
log K of transfer, water to solvent ([1]; Cyclohexane, 25 C): 4.27 log10 K
log K of transfer, water to solvent ([1]; Cyclohexanone, 25 C): 3.68 log10 K
log K of transfer, water to solvent ([1]; Di-n-butyl ether, 25 C): 4.03 log10 K
log K of transfer, water to solvent ([1]; Dichloromethane, 25 C): 3.94 log10 K
log K of transfer, water to solvent ([1]; Ethanol, 25 C): 3.48 log10 K
log K of transfer, water to solvent ([1]; Heptan-1-ol, 25 C): 3.65 log10 K
log K of transfer, water to solvent ([1]; Hexadecane, 25 C): 3.86 log10 K
log K of transfer, water to solvent ([1]; Hexan-1-ol, 25 C): 3.67 log10 K
log K of transfer, water to solvent ([1]; Hexane, 25 C): 4.14 log10 K
log K of transfer, water to solvent ([1]; Methanol, 25 C): 3.36 log10 K
log K of transfer, water to solvent ([1]; Octan-1-ol(dry), 25 C): 3.65 log10 K
log K of transfer, water to solvent ([1]; Pentan-1-ol, 25 C): 3.64 log10 K
log K of transfer, water to solvent ([1]; Perfluoroalkane, 25 C): 3.25 log10 K
log K of transfer, water to solvent ([1]; Propan-1-ol, 25 C): 3.51 log10 K
log K of transfer, water to solvent ([1]; Propan-2-ol, 25 C): 3.55 log10 K
log K of transfer, water to solvent ([1]; Tetrahydrofuran, 25 C): 4.03 log10 K
log K of transfer, water to solvent ([1]; Toluene, 25 C): 4.01 log10 K
log K of transfer, gas to solvent ([2]; 1,2-Dichloroethane, 25 C): 1.99 log10 K
log K of transfer, gas to solvent ([2]; Acetonitrile, 25 C): 1.53 log10 K
log K of transfer, gas to solvent ([2]; Benzene, 25 C): 2.19 log10 K
log K of transfer, gas to solvent ([2]; Butan-1-ol, 25 C): 1.98 log10 K
log K of transfer, gas to solvent ([2]; Butan-2-ol, 25 C): 1.94 log10 K
log K of transfer, gas to solvent ([2]; Butanone, 25 C): 2.07 log10 K
log K of transfer, gas to solvent ([2]; Butyronitrile, 25 C): 1.92 log10 K
log K of transfer, gas to solvent ([2]; CCl4, 25 C): 2.36 log10 K
log K of transfer, gas to solvent ([2]; Chlorobenzene, 25 C): 2.43 log10 K
log K of transfer, gas to solvent ([2]; Chloroform, 25 C): 2.36 log10 K
log K of transfer, gas to solvent ([2]; Cyclohexane, 25 C): 2.57 log10 K
log K of transfer, gas to solvent ([2]; Cyclohexanone, 25 C): 1.98 log10 K
log K of transfer, gas to solvent ([2]; Di-n-butyl ether, 25 C): 2.33 log10 K
log K of transfer, gas to solvent ([2]; Dichloromethane, 25 C): 2.24 log10 K
log K of transfer, gas to solvent ([2]; Ethanol, 25 C): 1.78 log10 K
log K of transfer, gas to solvent ([2]; Heptan-1-ol, 25 C): 1.95 log10 K
log K of transfer, gas to solvent ([2]; Hexadecane, 25 C): 2.16 log10 K
log K of transfer, gas to solvent ([2]; Hexan-1-ol, 25 C): 1.97 log10 K
log K of transfer, gas to solvent ([2]; Hexane, 25 C): 2.44 log10 K
log K of transfer, gas to solvent ([2]; Methanol, 25 C): 1.66 log10 K
log K of transfer, gas to solvent ([2]; Octan-1-ol, 25 C): 1.95 log10 K
log K of transfer, gas to solvent ([2]; Pentan-1-ol, 25 C): 1.94 log10 K
log K of transfer, gas to solvent ([2]; Perfluoroalkane, 25 C): 1.55 log10 K
log K of transfer, gas to solvent ([2]; Propan-1-ol, 25 C): 1.81 log10 K
log K of transfer, gas to solvent ([2]; Propan-2-ol, 25 C): 1.85 log10 K
log K of transfer, gas to solvent ([2]; Propanone, 25 C): 1.98 log10 K
log K of transfer, gas to solvent ([2]; Tetrahydrofuran, 25 C): 2.33 log10 K
log K of transfer, gas to solvent ([2]; Toluene, 25 C): 2.3 log10 K
log K of transfer, gas to solvent ([2]; Water, 25 C): -1.7 log10 K

Compound: C=CCCCCCCC
log K of transfer, water to solvent ([1]; Hexadecane, 25 C): 5.58 log10 K
log K of transfer, water to solvent ([1]; Octan-1-ol(dry), 25 C): 5.34 log10 K
log K of transfer, gas to solvent ([2]; Hexadecane, 25 C): 4.07 log10 K
log K of transfer, gas to solvent ([2]; Octan-1-ol, 25 C): 3.83 log10 K
log K of transfer, gas to solvent ([2]; Water, 25 C): -1.51 log10 K

Compound: Cc1ccncc1
log K of transfer, water to solvent ([1]; CCl4, 25 C): 0.84 log10 K
log K of transfer, water to solvent ([1]; Hexadecane, 25 C): 0.02 log10 K
log K of transfer, gas to solvent ([2]; CCl4, 25 C): 4.46 log10 K
log K of transfer, gas to solvent ([2]; Hexadecane, 25 C): 3.64 log10 K
log K of transfer, gas to solvent ([2]; Water, 25 C): 3.62 log10 K

Compound: CCCCCF
log K of transfer, water to solvent ([1]; Hexadecane, 25 C): 2.65 log10 K
log K of transfer, gas to solvent ([2]; Hexadecane, 25 C): 2.44 log10 K
log K of transfer, gas to solvent ([2]; Water, 25 C): -0.21 log10 K

More lines, now with the values ahead:

log K of transfer, water to solvent ([1]; Hexadecane, 25 C): -3.9 log10 K
log K of transfer, gas to solvent ([2]; Hexadecane, 25 C): 2.97 log10 K
log K of transfer, gas to solvent ([2]; Water, 25 C): 6.88 log10 K
Compound: CNC(C)=O

log K of transfer, water to solvent ([1]; Hexadecane, 25 C): -0.738 log10 K
log K of transfer, gas to solvent ([2]; Hexadecane, 25 C): 3.84 log10 K
log K of transfer, gas to solvent ([2]; Water, 25 C): 4.58 log10 K
Compound: Oc1cccc(F)c1

log K of transfer, water to solvent ([1]; Hexadecane, 25 C): 4.18 log10 K
log K of transfer, water to solvent ([1]; Hexane, 25 C): 4.35 log10 K
log K of transfer, gas to solvent ([2]; Hexadecane, 25 C): 6.62 log10 K
log K of transfer, gas to solvent ([2]; Hexane, 25 C): 6.79 log10 K
log K of transfer, gas to solvent ([2]; Water, 25 C): 2.44 log10 K
Compound: CCCCCCCCCCCCO

log K of transfer, water to solvent ([1]; Decan-1-ol, 25 C): 9.12 log10 K
log K of transfer, water to solvent ([1]; Di-n-butyl ether, 25 C): 8.85 log10 K
log K of transfer, water to solvent ([1]; Diethyl Ether, 25 C): 9.2 log10 K
log K of transfer, water to solvent ([1]; Hexadecane, 25 C): 7.88 log10 K
log K of transfer, water to solvent ([1]; Hexan-1-ol, 25 C): 9.16 log10 K
log K of transfer, water to solvent ([1]; Octan-1-ol(dry), 25 C): 9.15 log10 K
log K of transfer, water to solvent ([1]; Propan-2-ol, 25 C): 9.12 log10 K
log K of transfer, gas to solvent ([2]; Decan-1-ol, 25 C): 10.9 log10 K
log K of transfer, gas to solvent ([2]; Di-n-butyl ether, 25 C): 10.6 log10 K
log K of transfer, gas to solvent ([2]; Diethyl Ether, 25 C): 11 log10 K
log K of transfer, gas to solvent ([2]; Hexadecane, 25 C): 9.66 log10 K
log K of transfer, gas to solvent ([2]; Hexan-1-ol, 25 C): 10.9 log10 K
log K of transfer, gas to solvent ([2]; Octan-1-ol, 25 C): 10.9 log10 K
log K of transfer, gas to solvent ([2]; Propan-2-ol, 25 C): 10.9 log10 K
log K of transfer, gas to solvent ([2]; Water, 25 C): 1.78 log10 K
Compound: CCCCCCCCCCCCCCCCCCO
